The text below walks through data of article PMC7486406, “A flavin-dependent monooxygenase catalyzes the initial step in cyanogenic glycoside synthesis in ferns” (Communications Biology, 2020).

Series [1] concerns the target T1, PaqFOS1 (Pteridium aquilinum, UniProt A0A7H1KPE2).
T1 construct: gene FOS1; full-length, N-terminal 6xHis, codon-optimised, pET-30a(+), E. coli BL21(DE3)-R3; methods print contig as Paq18305
Put plainly: absorbance spectrometry; SEC monitored at […] nm. The format is binding. Conditions: cofactor of the isolated protein; 50 mM HEPES pH 7.5, 150 mM NaCl, 0.5 mM TCEP.

Series [2] addresses T1, PaqFOS1. Put plainly: absorbance spectrometry; SEC monitored at […] nm. Conditions: cofactor of the isolated protein; 50 mM HEPES pH 7.5, 150 mM NaCl, 0.5 mM TCEP. In kind it is binding. This is another data set of the same source.
Series [3] concerns the molecule itself. Put plainly: SEC; HiLoad 16/60 Superdex 200 calibrated with a high molecular weight kit (43 to 669 kDa); 50 mM HEPES pH 7.5, 150 mM NaCl, 0.5 mM TCEP; after His-Trap purification; self-association (dimer).

As to `Cc1cc2nc3c(=O)[nH]c(=O)nc-3n(C[C@H](O)[C@H](O)[C@H](O)COP(=O)(O)OP(=O)(O)OC[C@H]3O[C@@H](n4cnc5c(N)ncnc54)[C@H](O)[C@@H]3O)c2cc1C` [FAD], the “absorbance spectrometry; SEC monitored at 450 nm” value in series [1] is “The isolated PaqFOS1 protein binds the cofactors FAD and NADPH as demonstrated by absorbance spectrometry”.

On to `NC(=O)C1=CN([C@@H]2O[C@H](COP(=O)(O)OP(=O)(O)OC[C@H]3O[C@@H](n4cnc5c(N)ncnc54)[C@H](OP(=O)(O)O)[C@@H]3O)[C@@H](O)[C@H]2O)C=CC1` [NADPH], for which the “absorbance spectrometry; SEC monitored at 254 nm” value in series [2] was “The isolated PaqFOS1 protein binds the cofactors FAD and NADPH as demonstrated by absorbance spectrometry”.

B1: Arabidopsis thaliana flavin-dependent monooxygenase 1 (AtFMO1), recombinant with upstream 6xHis tag (enzyme, A. thaliana, UniProt Q9LMA1 1-530, looked up)
chain: MASNYDKLTSSRVAIIGAGVSGLAAAKNLVHHNPTVFEASDSVGGVWRSCTYETTKLQSARVDYEFSDFPWPNNRDDTTFPPYLEILDYLESYAKHFDLLKFMKFGSKVIEVRFIGDGETPQMVDLGAYGNLLPGKPVWEVAVQIGDSGDIQWHAFEFVVVCTGKYGDVPRIPAFPAKKGPEMFQGKVMHSMDYCKLEKEEASTLLSGKKVAVIGFKKSAIDLALESALANQGEGGKACTMVVRTTHWGIPHYWVWGLPFFLFYSSRASQFLHDRPNQSFLRTLFCLLFSLLRAVVSKFIESYVLWKLPLEKYGLKPNHSFEEDYASCQMAIIPENFFEEADKGMIRFKKSSKWWFYEEGIVFEDGTTLEADVVILATGYDGKKKLKAIVPEPFRTWLEFPSGVMPLYRGTIHPLIPNMGFVGYVQSSSNLHTSELRSMWLSRLVDEKFRLPSKEKMLDQFLKEMEVTRNSSRFYKRHCISTFSIQHADDMCNDMGLNPWRKSNFLLEAFSPYGSQDYRLGQEEKEDMTA
notes: AtFMO1 from Arabidopsis thaliana (Q9LMA1), codon optimized for E. coli; The methods describe the isolation for PaqFOS1 only; AtFMO1 is said to have been expressed and isolated in parallel; source: E. coli BL21(DE3)-R3, pET-30a(+), expressed and isolated in parallel to PaqFOS1
As to B1, in series [3], the “stoichiometry N” value is 2.

B2: Pteridium aquilinum fern oxime synthase 1 (PaqFOS1), recombinant with N-terminal 6xHis tag (enzyme, UniProt A0A7H1KPE2 1-543, looked up)
chain: MAPNVPSAMYTTCLPERTALQEKLSGDRAALAARVCIVGAGVTGLCACKHLLQHGVESVVLEMQTGVGGVWRNTFSSTKLQTPRDAFQYSDFLWPPGTPRLPSHAQVLDYLESYARKFQVLERIVFNCRVLEVRRLDLEGPPPVSAFQKLPANAKWAVRVQQGSADLTQLDAEWLYFEYVLVCVGHYGDIAKTPKFAVPSKGPQAFHGKVLHSLDYSKLDEAATKKLLTGKRVIVVGSRKSALDAVMEASNSNRGPDGKPVTLLFRTPHWVIAHHFFYGIPMSYMTSRFSQLLVPQPGGGSTLHDIISAALSPLRWALSKALEFYLLSTLPLAEHGFVPNQNIFEEFKSCKLTLLPEHFFDYVKEGHIKLQKTSTWCFSSNGVTLPNGDELEADVIILCTGYEGERKIKSLLGTSFEDILQENDSSIPLYRGVLPPRIPNMAILGFQESYSNLFSAEMSARWVAYWIAGKIALPNKEIMEMEAYKWLRNTKPFMTINDKTCVNTTALQLADQMCRDMGWNSRRKKSLLQEIFAPYGNMDYKDE
notes: identical to the 543 aa ORF of Pa22758 except for a single amino acid substitution; calculated mass 62.5 kDa; codon optimized for E. coli; No removal of the His tag is described; also called Paq18302; Paq18302 FMO
B2: in series [3], the “stoichiometry N” value stood at 2.
